Measurements: patent US20130090329A1, “Methods and Compositions for the Treatment of Psychotic Disorders Through the Identification of the Olanzapine Poor Response Predictor Genetic Signature” (SUREGENE, LLC, priority 2011, published 2013)
Marks after values point to notes of the source that are not given here.

How the values were obtained:
[1] = system: patients suffering from schizophrenia and related disorders; assay: CATIE study: percent change in total PANSS from baseline to LOCF, segmented by OPRP genetic signature status; type: in vivo, human; details: for DELTA PANSS % (mean change in PANSS score from baseline to LOCF): CATIE Phase I and IB, more negative = greater improvement; for Effect size (mean difference / standard deviation): olanzapine OPRP positive versus labelled drug OPRP positive, CATIE
Description: Genotype and phenotype data for the CATIE trial were recently made available to qualified researchers through the NIMH Center for Collaborative Genetic Studies on Mental Disorders. The sample consisted of a total of 738 patients. For the present study, the inventors assigned OPRP status to 628 subjects, including 411 subjects of self-reported European ancestry and 217 subjects of self-reported African ancestry. Further details on the patient population are described in the study by Sullivan and coworkers (Sullivan et al., 2008). The CATIE SNP genotype data evaluated included a total of 492,900 SNPs located throughout the genome.
The design of the CATIE study has been described in detail by others (Lieberman et al., 2005; Stroup et al., 2003). […] Subjects that failed Phase I treatment with the typical antipsychotic perphenazine were treated differently than those subjects that failed phase I treatment with an atypical antipsychotic. Instead of entering into Phase II of the trial, subjects who switched from perphenazine entered Phase IB. […] Subjects who failed Phase IB then entered Phase II.
(§1) A total of 738 subjects consented to provide DNA for genetic study. […] Only retrospective genetic analyses, judged to be exempt from human studies requirements by an IRB, were conducted in the current study. For the genetic analyses presented herein, the inventors combined and evaluated drug response data for both Phase I and Phase IB of the CATIE study. All tested patients were studied using well established clinical endpoints comparing baseline, intermediate, and last observation carried forward (LOCF) for the PANSS scores using CATIE data. LOCF analysis is a commonly used clinical endpoint for clinical trials for neuropsychiatric drugs, with particular changes in PANSS scores being used to indicate clinically significant response (Leucht et al., 2009).
Using the clinical data from the CAIE trial, the inventors derived several different metrics used for quantifying response in clinical trials of antipsychotic medications. The most commonly used psychometric instrument is the Positive and Negative Syndrome Scale (PANSS), a 30-item semi-quantitative instrument scored by clinical professionals (Kay et al., 1987). The greater the decrease in PANSS score, the better the clinical response. The most direct measure of clinical response is absolute change in PANSS score. In addition to absolute change, the improvement is often reported as a percentage change from baseline PANSS score.
To examine the relationship of genotypes to drug response the inventors used the publically available PLINK software (Purcell et al., 2007; available on the world wide web at pngu.mgh.harvard.edu/purcell/plink/) and Helix tree (Version 6.4.1; Golden Helix, Bozeman, Mont.). The inventors used Last observation Carry Forward (LOCF) delta PANSS values as a measure of response to antipsychotic treatment. […] The inventors refined the test further by conducting association analysis on using only those subjects that comprised the TT genotype of rs11960832.
As mentioned previously, the mean change in absolute or percent PANSS provides an important measure of efficacy in patients undergoing antipsychotic treatments. Indeed, many pivotal trials in the psychosis field used absolute and/or percentage change in PANSS Score as the primary endpoint (Leucht et al., 2009).

[2] = system: patients suffering from schizophrenia and related disorders; assay: CATIE study: categorical responders (change in total PANSS ≦−10%, LOCF) by OPRP status; type: in vivo, human; details: for Responders: change in total PANSS ≦−10%
Procedure: A total of 738 subjects consented to provide DNA for genetic study. Details regarding SNP genotyping and quality control have been recently published (Sullivan et al., 2008). Only retrospective genetic analyses, judged to be exempt from human studies requirements by an IRB, were conducted in the current study. For the genetic analyses presented herein, the inventors combined and evaluated drug response data for both Phase I and Phase IB of the CATIE study. All tested patients were studied using well established clinical endpoints comparing baseline, intermediate, and last observation carried forward (LOCF) for the PANSS scores using CATIE data. LOCF analysis is a commonly used clinical endpoint for clinical trials for neuropsychiatric drugs, with particular changes in PANSS scores being used to indicate clinically significant response (Leucht et al., 2009). […] As described above CATIE patients were studied using well established clinical endpoints comparing baseline, intermediate, and last observation carried forward (LOCF) for the PANSS scores.

[3] = system: patients suffering from schizophrenia and related disorders; assay: CATIE study: worsening of symptoms (LOCF delta PANSS ≧0%) by OPRP status; type: in vivo, human; details: LOCF; for Worsening: delta PANSS ≧0%
Procedure: as §1
The inventors also examined the impact of the OPRP status on whether patients' symptoms actually got worse when treated with olanzapine. This is an important safety consideration for antipsychotic drugs response, and failure of a drug to display the desired clinical response on a specific subset of patients could impact the drug label, being contraindicated for a particular subset of patients (see Example 5: “Risk Management Involving the OPRP Genetic Test). […]

psychopathology (PANSS) [4] = details: meta-analysis, population not segmented by OPRP; negative = greater reduction in PANSS; cited from earlier work
psychopathology = details: meta-analysis, Davis et al. (2003); cited from earlier work
psychopathology (PANSS) [5] = details: weighted mean difference in PANSS score (absolute); negative = olanzapine superior; cited from earlier work

O=C1Cc2cc(CCN3CCN(c4nsc5ccccc45)CC3)c(Cl)cc2N1 [Ziprasidone]
DELTA PANSS % (mean change in PANSS score from baseline to LOCF) ([1]; OPRP Negative subjects): −1.5^++++ % | DELTA PANSS % (mean change in PANSS score from baseline to LOCF) ([1]; OPRP Positive subjects): −0.5% | Mean difference between olanzapine and labelled atypical antipsychotic, CATIE OPRP− ([1]; OPRP negative subjects, delta PANSS, negative = olanzapine superior): −10.1 | Mean difference in delta PANSS: olanzapine-treated OPRP positive group minus comparator group ([1]; comparator = OPRP positive subjects treated with the labelled drug, positive = poorer response to olanzapine): 4.8 | Mean difference between olanzapine and labelled atypical antipsychotic, CATIE unsegemented ([1]; delta PANSS, negative = olanzapine superior): −4.9 | Effect size (mean difference / standard deviation) [1]: 0.2^b | Effect size (mean difference / standard deviation) ([1]; listed as ziprasidone): 0.2 | Number of individuals with change in total PANSS ≦−10% (responders) ([2]; OPRP Negative): 16 | Number of individuals with change in total PANSS ≧−10% (non-responders) ([2]; OPRP Negative): 53 | Responders ([2]; OPRP Negative): 23%^++++ | Number of individuals with change in total PANSS ≦−10% (responders) ([2]; OPRP Positive): 2 | Number of individuals with change in total PANSS ≧−10% (non-responders) ([2]; OPRP Positive): 9 | Responders ([2]; OPRP Positive): 18% | Number of individuals with delta PANSS ≦0% (non-worsening) ([3]; OPRP Negative): 35 | Number of individuals with delta PANSS ≧0% (worsening symptoms) ([3]; OPRP Negative): 34 | Worsening ([3]; OPRP Negative): 49%^++++ | Number of individuals with delta PANSS ≦0% (non-worsening) ([3]; OPRP Positive): 7 | Number of individuals with delta PANSS ≧0% (worsening symptoms) ([3]; OPRP Positive): 4 | Worsening ([3]; OPRP Positive): 36% | Effect Size vs. Placebo (psychopathology (PANSS) [4]): −0.48 | Effect Size vs. FGA (first generation antipsychotics) (psychopathology): −0.04 | Mean difference between olanzapine and labelled atypical antipsychotic, Meta-analysis (psychopathology (PANSS) [5]): −8.3
